Data taken from publication PMC11178805, “Ligand-based design of [^18F]OXD-2314 for PET imaging in non-Alzheimer’s disease tauopathies” (Nature Communications, 2024).
Where “and” joins values, the source holds several entries; their conditions need not be identical. Equal entries are not always repeated.

Tests used:
[1] = Radiometabolite analysis in rat plasma and brain homogenates; assay type: in vivo, rat (Sprague-Dawley); conditions: for parent fraction of radioactivity in brain homogenates: rats
Experimental: Radiometabolite analysis was performed ex vivo in plasma and brain homogenates from rats (n = 5, 3 female and 2 male) at 30 and 60 min after radiotracer injection (Figs. S11–S16). […] The parent fraction in plasma was 6% at 30 min and 5% at 60 min in the two male rats, respectively, and 32% at 30 min (n = 1) and 18% and 17% at 60 min (n = 2) in the female rats. Different rates of metabolism between male and female rats may have contributed to the differences in kinetics observed in the brain PET scans. No lipophilic radiometabolites were detected in plasma or brain. Parent [^18F]OXD-2314 accounted for 82 ± 7% (n = 2) and 80 ± 5% (n = 3) of the radioactivity in rat brain homogenates by 30 and 60 min post-injection of the radiotracer, respectively. The rats were not perfused with saline immediately prior to sacrifice, so that radiometabolites in blood were trapped in the brain and likely accounted for a portion of the polar radiometabolites found in brain, as cerebral blood volume in rats is approximately 4–5% of total brain volume.
Five adult Sprague-Dawley rats (3 F/2 M, 378 ± 51 g) were used in [^18F]OXD-2314 radiometabolite analysis. Following injection of 46.7 ± 3.3 MBq of the radiotracer through a tail-vein catheter, rats were sacrificed by decapitation 30 min (n = 2) and 60 min (n = 3) post-injection. Trunk blood was collected and centrifuged for 5 min at 2500 × g, and the plasma was collected. Brains were quickly extracted and homogenized with a BeadBug™ (Benchmark Scientific; Sayreville, NJ, USA) in 3.2 mL acetonitrile together with 1 μg of unlabeled parent compound, then 1.6 mL deionized H2O was added and mixed. The homogenate was centrifuged at 12,000 × g for 5 min, and the supernatant was collected. Parent radiotracer was separated from metabolites in plasma and brain extract by column-switching HPLC in a mobile phase of 40/60 CH3CN/100 mM NH4HCO2 (v/v) and analyzed with PowerChrom 2.6.15 (eDAQ).

[2] = Whole-body PET-CT biodistribution and dose estimation in rats; assay type: in vivo
Excerpt: Six rats (3 male, 19.9 ± 6.2 MBq; and 3 female, 20.8 ± 3.2 MBq) were imaged using PET-CT for whole-body biodistribution of radioactivity and dose estimation using standard mass and density of the organs for adult male and female subjects, respectively (Figure S17). […] The estimated whole-body effective dose was 21.3 ± 3.1 and 22.5 ± 0.9 µSv/MBq for adult male and female models, respectively, with the highest absorbed dose of 50.6 ± 16.9 µGy/MBq in the large intestine.
A total of 8 healthy adult rats (Sprague-Dawley, 384 ± 56 g; 4/4 M/F) underwent PET imaging following bolus injection of [^18F]OXD-2314 (20.5 ± 4.1 MBq), with two animals (M/F) scanned for 120 min with the head in the centre of PET field-of-view (FOV) whereas six animals (3/3 M/F) scanned for 180 min at three bed positions (head-to-bottom) with 15 frames (2×15 s, 2×30 s, 2×60 s, 1×120 s, 1×180 s, 2×240 s, 2×300 s, and 3×600 s) to cover the whole body. PET images were acquired using a nanoScan™ PET/CT scanner (Mediso, Budapest, Hungary) with rats anesthetized under isoflurane in O2 (1.5–2%, 1 L/min) throughout the imaging session and monitored closely for body temperature and respiration rate. A scout CT was acquired for PET FOV positioning, then a material map CT image was acquired for PET corrections of attenuation and scatter and for PET/CT co-registration to define anatomic brain regions of interest. For the brain scans, aacquired list-mode data were sorted into thirty-nine three-dimensional (3D) (3×5 s, 3×15 s, 3×20 s, 7×60 s, 17×180 s, and 6×600 s), true sinograms (ring difference 84). The 3D sinograms were converted in 2D sinograms using Fourier rebinning with corrections for detector geometry, efficiencies, attenuation, and scatter before image reconstruction using 2D filtered back projection with a Hann filter at a cut-off of 0.50 cm^−1. The analytical reconstruction was also used for dose assessment of the multi-frame whole-body images. All data were corrected for dead time and were decay-corrected to the start of acquisition. Iteratively reconstructed images with the manufacturer’s proprietary 3D algorithm (6 subsets, 4 iterations) were used for PET and CT co-registration, for co-registration of subject’s CT with a stereotactic MR atlas of brain[51], for organ region-of-interest (ROI) placement, and for presentation in figures. Filtered back projection images were used to extract regional brain and organ time-activity curves (TACs) with VivoQuant® 2020 software (Invicro, Needham, MA, USA) and Amide (1.0.4)[52]. The selected organs (a total of 12) include brain, lungs, heart wall, heart content, liver, stomach content, spleen, kidneys, small intestine content, upper large intestine content, lower large intestine content, and urinary bladder content. Normalized cumulated activities of each organ were calculated using trapezoidal integration of the area under the TACs plus extrapolation of the TAC to infinity with natural decay of the radiotracer. Dose assessment was performed with OLINDA/EXM 1.1 to calculate the effective dose and the effective dose equivalent. SUV were calculated by normalizing regional radioactivity for injected radioactivity and body weight.

[3] = target: T1, norepinephrine transporter(h) (Homo sapiens, UniProt P23975); assay: In vitro pharmacology binding screen (Eurofins): norepinephrine transporter; conditions: read-out: inhibition of antagonist radioligand (protriptyline) binding to norepinephrine transporter(h)
T1 construct: purchased Eurofins, France (contract screening)
T1 sequence (P23975 whole entry): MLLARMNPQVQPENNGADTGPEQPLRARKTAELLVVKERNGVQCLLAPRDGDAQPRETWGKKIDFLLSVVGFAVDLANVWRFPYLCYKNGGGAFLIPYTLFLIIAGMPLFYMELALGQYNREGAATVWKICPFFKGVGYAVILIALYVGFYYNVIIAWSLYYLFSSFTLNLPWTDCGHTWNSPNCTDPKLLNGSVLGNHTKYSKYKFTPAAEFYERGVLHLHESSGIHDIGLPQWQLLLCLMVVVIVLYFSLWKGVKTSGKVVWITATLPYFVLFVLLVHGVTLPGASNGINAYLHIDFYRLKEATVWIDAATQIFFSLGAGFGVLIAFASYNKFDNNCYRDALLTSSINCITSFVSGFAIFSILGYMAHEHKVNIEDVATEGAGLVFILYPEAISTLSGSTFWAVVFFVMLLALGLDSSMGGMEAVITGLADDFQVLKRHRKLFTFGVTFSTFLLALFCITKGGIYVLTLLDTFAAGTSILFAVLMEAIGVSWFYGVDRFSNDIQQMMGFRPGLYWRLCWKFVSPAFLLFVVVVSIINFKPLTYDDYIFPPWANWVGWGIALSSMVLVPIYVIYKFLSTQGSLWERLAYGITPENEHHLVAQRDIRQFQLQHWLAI
Experimental: OXD-2314 binding to CNS receptors was calculated as a percentage of inhibition of a receptor-specific radioligand. Enzyme inhibition was calculated as the percent inhibition of baseline enzyme activity where inhibition above 50% was considered significant. […] Norepinephrine transports are expressed in low concentration throughout the brain and its relative concentration are not affected by aging or neurodegeneration. 5-lipoxygenase may be overexpressed in aging brain and play some role in neurodegeneration, which could be necessary to further investigate in vivo[42]. Off-target binding to monoamine oxidase A and B (MAO-A and MAO-B) has been seen with some tau PET radiotracers[43],[44].

Row | inhibition at 10 µM [3] [%] | Structure (SMILES) | % Parent Brain ([1]; female rat, 30 min) [%] | parent fraction in plasma ([1]; female rat, 30 min post-injection) | % Parent Brain ([1]; female rats, 60 min) | parent fraction in plasma ([1]; female rats, 60 min post-injection) | % Parent Brain ([1]; male rat, 30 min) [%] | parent fraction in plasma ([1]; male rat, 30 min post-injection) | % Parent Brain ([1]; male rat, 60 min) [%] | parent fraction in plasma ([1]; male rat, 60 min post-injection) [%] | parent fraction of radioactivity in brain homogenates ([1]; 30 min post-injection, n = 2) [%] | parent fraction of radioactivity in brain homogenates ([1]; 60 min post-injection, n = 3) [%] | estimated whole-body effective dose ([2]; adult female model, from rat data) [µSv/MBq] | estimated whole-body effective dose ([2]; adult male model, from rat data) [µSv/MBq] | highest absorbed dose, large intestine ([2]; from rat data) [µGy/MBq] | uptake of radioactivity (normalized cumulated activity), large intestines ([2]; rats, n = 6) [MBqOrgan⋅hr/MBqInjected] | uptake of radioactivity (normalized cumulated activity), liver ([2]; rats, n = 6) [MBqOrgan⋅hr/MBqInjected] | uptake of radioactivity (normalized cumulated activity), small intestine ([2]; rats, n = 6) [MBqOrgan⋅hr/MBqInjected]
1 |  | CO[C@H]1CCCN(c2ccc(-c3cc4cc(O)ccc4[nH]3)c([18F])n2)C1 [[^18F]OXD-2314] | 77.11 | 32% and 32.43% | 81.01% and 83.78% | 18% and 17% and 17.66% and 17.32% | 87.09 | 6% and 5.79% | 74.16 | 5 | 82 ± 7 | 80 ± 5 | 22.5 ± 0.9 | 21.3 ± 3.1 | 50.6 ± 16.9 | 0.067 ± 0.032 | 0.147 ± 0.023 | 0.075 ± 0.019
2 | 62.9 | COC1CCCN(c2ccc(-c3cc4cc(O)ccc4[nH]3)c(F)n2)C1 (centres unmarked) [OXD-2314, 2-(2-fluoro-6-(3-methoxypiperidin-1-yl)pyridin-3-yl)-1H-indol-5-ol] |  |  |  |  |  |  |  |  |  |  |  |  |  |  |  | 
